Test system: pancreatic adenocarcinoma
Experiment: Overall survival (OS) by baseline plasma analytes, CALGB 80303 gemcitabine +/- bevacizumab
Format: in vivo, human
Source text: Eligibility of patients evaluated in this correlative analysis was described previously (Kindler et al., J Clin Oncol 2010 28(22):3617-3622). Briefly, eligible patients had histologically- or cytologically-confirmed pancreatic adenocarcinoma not amenable to curative surgery. Measurable disease was not required. Prior chemotherapy for metastatic disease was not permitted. […] Prior radiation was allowed if it was completed at least 4 weeks prior to enrollment and there was disease outside the radiation port. Patients were required to be at least 18 years of age and have a life expectancy of at least 12 weeks. Written informed consent was obtained from all patients participating in this correlative analysis.
Gemcitabine (1,000 mg/m^2) was administered intravenously over 30 minutes on days 1, 8, and 15 of a 28-day cycle. […]
Patterns of expression were analyzed at baseline and were correlated with overall survival (OS) and progression free survival (PFS) using univariate Cox proportional hazard regression models and multivariate Cox models with leave-one-out cross validation. Spearman's rank correlation coefficients were calculated for all pairs of analytes. […]
The primary endpoint of interest will be overall survival (OS) with correlation to the blood analytes; however, progression-free survival (PFS) was evaluated. […]

## bevacizumab: monoclonal antibody against VEGF
VEGF-D above Q1, more than 1092.35 pg/mL, p=0.035
  benefit from bevacizumab (overall survival): predicted for lack of benefit
VEGF-D below Q1, less than 1092.35 pg/mL, p=0.033
  benefit from bevacizumab (overall survival): predicted for benefit

Source: patent US10613091B2, “Methods of developing a prognosis for pancreatic cancer and predicting responsiveness to cancer therapeutics” (DUKE UNIVERSITY, priority 2011, dated 2020)
